The target of one series is T1, APJ receptor (Homo sapiens, UniProt P35414).
T1 construct: expressed in transfected cells; host or cells: Human TRex cells (doxycycline-inducible)
T1 sequence (P35414 1-380): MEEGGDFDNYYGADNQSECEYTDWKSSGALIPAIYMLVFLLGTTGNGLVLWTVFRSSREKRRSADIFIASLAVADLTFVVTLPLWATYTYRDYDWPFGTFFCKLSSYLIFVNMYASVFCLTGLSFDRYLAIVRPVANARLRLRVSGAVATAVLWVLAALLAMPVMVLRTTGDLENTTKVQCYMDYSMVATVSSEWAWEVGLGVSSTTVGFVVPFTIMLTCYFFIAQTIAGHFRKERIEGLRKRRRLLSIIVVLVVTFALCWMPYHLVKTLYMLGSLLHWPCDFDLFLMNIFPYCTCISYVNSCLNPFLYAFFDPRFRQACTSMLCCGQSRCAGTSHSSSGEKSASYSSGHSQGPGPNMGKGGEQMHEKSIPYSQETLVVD
Briefly: HTRF cAMP assay, inhibition of NKH477 stimulated cAMP in Human TRex cells expressing APJ upon doxycycline induction (APJ-hTREX). The series is classed as cell-based. The note with it: for percent intrinsic activity at 0.3 µM: read-out: % IA (@ 300 nM); for Ranking: class combining EC50 and % histamine. The text has this: HTRF (homogeneous time resolved fluorescence) is a technology developed by Cisbio Bioassays based on TR-FRET (time-resolved fluorescence resonance energy transfer). Cisbio Bioassays has developed a wide selection of HTRF-based assays compatible with whole cells, thereby enabling functional assays to run under more physiological conditions. The IP-One assays are competitive immunoassays using cryptate-labeled anti-IP1 monoclonal antibody and d2-labeled IP1. IP1 is a relatively stable downstream metabolite of IP3, and accumulates in cells following Gq receptor activation.
cAMP kits based on a competitive immunoassay using cryptate-labeled anti-cAMP antibody and d2-labeled cAMP were used to assay the effects of APJ compounds of the present invention. […] Cells are treated with […] doxycycline and seeded in all white 96 well plates @ 40 k/well overnight.
For orientation: TR-FRET usually uses a lanthanide donor and a delayed reading to cut background.

Where a SMILES comes first, the peptide text is derived from it. [ ]: non-standard residue; d: D form. The star is where a group is joined. Palmitoyl = CCCCCCCCCCCCCCCC(=O)*; Aib = CC(C)(N)C(=O)O

In the case of `CCCCCCCCCCCCCCCC(=O)N[C@H](C(=O)N[C@H](C(=O)N[C@@H](Cc1ccccc1)C(=O)N[C@@H](CCCNC(=N)N)C(=O)N[C@@H](CO)C(=O)N[C@@H](CO)C(=O)N[C@@H](CCC(=O)O)C(=O)N[C@H](CCCCN)C(=O)N[C@@H](CCCNC(=N)N)C(=O)N1CCC[C@H]1C(=O)N[C@@H](CO)C(=O)N[C@@H](C)C(=O)N[C@@H](CC(=O)O)C(=O)N[C@H](C(=O)N[C@@H](Cc1ccccc1)C(=O)N[C@H](C(N)=O)[C@@H](C)CC)[C@@H](C)CC)C(C)C)[C@@H](C)O` [Compound 50] (Palmitoyl-TVFRSSE[dK]RPSADIFI-NH2), at APJ receptor, the percent intrinsic activity at 0.3 µM was found to be 41%. In addition, the “Histimine (% vs. 48/40)” value in “Histimine (% vs. 48/40)” worked out at 16%.
Consider `CCCCCCCCCCCCCCCC(=O)N[C@H](C(=O)N[C@@H](CCC(N)=O)C(=O)N[C@@H](Cc1ccccc1)C(=O)N[C@@H](CCCNC(=N)N)C(=O)N[C@@H](CO)C(=O)N[C@@H](CO)C(=O)N[C@@H](CCC(=O)O)C(=O)N[C@H](CCCCN)C(=O)N[C@@H](CCCNC(=N)N)C(=O)N[C@@H](CCCNC(=N)N)C(=O)N[C@@H](CO)C(=O)N[C@@H](C)C(=O)N[C@@H](CC(=O)O)C(=O)N[C@H](C(=O)N[C@@H](Cc1ccccc1)C(=O)N[C@H](C(N)=O)[C@@H](C)CC)[C@@H](C)CC)[C@@H](C)O` [Compound 21] (Palmitoyl-TQFRSSE[dK]RRSADIFI-NH2; C-terminus assumed), for which, on APJ receptor, it took 41 nM to reach a half-maximal effect (EC50); the Ranking entry is “*** (EC50<100 nM and % histamine>35%)”; the percent intrinsic activity at 0.3 µM is 72%. The “Histimine (% vs. 48/40)” value in the series “Histimine (% vs. 48/40)” is given as 39%.
Turning to `CCCCCCCCCCCCCCCC(=O)N[C@H](C(=O)N[C@H](C(=O)N[C@@H](Cc1ccccc1)C(=O)N[C@@H](CCCNC(=N)N)C(=O)N[C@@H](CO)C(=O)N[C@@H](CO)C(=O)N[C@@H](CCC(=O)O)C(=O)N[C@H](CCCCN)C(=O)N[C@@H](CCCNC(=N)N)C(=O)N[C@@H](CCCNC(=N)N)C(=O)N1CCC[C@H]1C(=O)N[C@@H](C)C(=O)N[C@@H](CC(=O)O)C(=O)N[C@H](C(=O)N[C@@H](Cc1ccccc1)C(=O)N[C@H](C(N)=O)[C@@H](C)CC)[C@@H](C)CC)C(C)C)[C@@H](C)O` [Compound 51] (Palmitoyl-TVFRSSE[dK]RRPADIFI-NH2), on APJ receptor, the percent intrinsic activity at 0.3 µM came out at 60%. For the same compound, in “Histimine (% vs. 48/40)”, the “Histimine (% vs. 48/40)” value was 63%.
Consider `CCCCCCCCCCCCCCCC(=O)N[C@H](C(=O)NCC(=O)N[C@@H](Cc1ccccc1)C(=O)N[C@@H](CCCNC(=N)N)C(=O)N[C@@H](CO)C(=O)N[C@@H](CO)C(=O)N[C@@H](CCC(=O)O)C(=O)N[C@H](CCCCN)C(=O)N[C@@H](CCCNC(=N)N)C(=O)N[C@@H](CCCNC(=N)N)C(=O)N[C@@H](CO)C(=O)N[C@@H](C)C(=O)N[C@@H](CC(=O)O)C(=O)N[C@H](C(=O)N[C@@H](Cc1ccccc1)C(=O)N[C@H](C(N)=O)[C@@H](C)CC)[C@@H](C)CC)[C@@H](C)O` [Compound 69] (Palmitoyl-TGFRSSE[dK]RRSADIFI-NH2; C-terminus assumed), for which, on APJ receptor, the EC50 (in general, the concentration at which the effect is half-maximal) was found to be 38.1 nM; the Ranking result is “*** (EC50<100 nM and % histamine>35%)”; the percent intrinsic activity at 0.3 µM worked out at 77%. The “Histimine (% vs. 48/40)” value in “Histimine (% vs. 48/40)” stood at 50%.
For the compound `CCCCCCCCCCCCCCCC(=O)N[C@H](C(=O)N[C@H](C(=O)N[C@@H](Cc1ccccc1)C(=O)N[C@@H](CCCNC(=N)N)C(=O)N[C@@H](CO)C(=O)N[C@@H](CO)C(=O)N[C@@H](CCC(=O)O)C(=O)N[C@H](CCCCN)C(=O)N[C@@H](CCCNC(=N)N)C(=O)N[C@@H](CCCNC(=N)N)C(=O)N[C@@H](CO)C(=O)N[C@@H](C)C(=O)N[C@@H](CCC(N)=O)C(=O)N[C@H](C(=O)N[C@@H](Cc1ccccc1)C(=O)N[C@H](C(N)=O)[C@@H](C)CC)[C@@H](C)CC)C(C)C)[C@@H](C)O` [Compound 29] (Palmitoyl-TVFRSSE[dK]RRSAQIFI-NH2), the percent intrinsic activity at 0.3 µM at APJ receptor is 9%. The “Histimine (% vs. 48/40)” value in “Histimine (% vs. 48/40)” is given as 92%.
As for `CCCCCCCCCCCCCCCC(=O)N[C@H](C(=O)N[C@H](C(=O)N[C@@H](Cc1ccccc1)C(=O)N[C@@H](CCCNC(=N)N)C(=O)N[C@@H](CO)C(=O)N[C@@H](CO)C(=O)N[C@@H](CCC(=O)O)C(=O)N[C@H](CCCCN)C(=O)N[C@@H](CCCNC(=N)N)C(=O)N[C@@H](CCCNC(=N)N)C(=O)N[C@@H](CO)C(=O)N[C@@H](C)C(=O)N[C@@H](Cc1ccccc1)C(=O)N[C@H](C(=O)N[C@@H](Cc1ccccc1)C(=O)N[C@H](C(N)=O)[C@@H](C)CC)[C@@H](C)CC)C(C)C)[C@@H](C)O` [Compound 4] (Palmitoyl-TVFRSSE[dK]RRSAFIFI-NH2), the percent intrinsic activity at 0.3 µM at APJ receptor came to 65%. For the same compound, the “Histimine (% vs. 48/40)” value in “Histimine (% vs. 48/40)” was 118%.
Consider `CCCCCCCCCCCCCCCC(=O)N[C@H](C(=O)N[C@H](C(=O)N[C@@H](Cc1ccccc1)C(=O)NC(C)(C)C(=O)N[C@@H](CO)C(=O)N[C@@H](CO)C(=O)N[C@@H](CCC(=O)O)C(=O)N[C@H](CCCCN)C(=O)N[C@@H](CCCNC(=N)N)C(=O)N[C@@H](CCCNC(=N)N)C(=O)N[C@@H](CO)C(=O)N[C@@H](C)C(=O)N[C@@H](CC(=O)O)C(=O)N[C@H](C(=O)N[C@@H](Cc1ccccc1)C(=O)N[C@H](C(N)=O)[C@@H](C)CC)[C@@H](C)CC)C(C)C)[C@@H](C)O` [Compound 58] (Palmitoyl-TVF[Aib]SSE[dK]RRSADIFI-NH2; C-terminus assumed), for which, at APJ receptor, the EC50 amounted to 10000 nM; the Ranking entry is “* (EC50>500 nM and % histamine>35%)”; the percent intrinsic activity at 0.3 µM was determined as 54%. In addition, in the series “Histimine (% vs. 48/40)”, the “Histimine (% vs. 48/40)” value came out at 11%.
Regarding `CCCCCCCCCCCCCCCC(=O)N[C@H](C(=O)N[C@H](C(=O)N[C@@H](Cc1ccccc1)C(=O)N[C@@H](CCCNC(=N)N)C(=O)N[C@@H](CO)C(=O)N[C@@H](CO)C(=O)N[C@@H](CCC(=O)O)C(=O)N[C@H](CCCCN)C(=O)N[C@@H](CCCNC(=N)N)C(=O)N[C@@H](CCCNC(=N)N)C(=O)NC(C)(C)C(=O)N[C@@H](C)C(=O)N[C@@H](CC(=O)O)C(=O)N[C@H](C(=O)N[C@@H](Cc1ccccc1)C(=O)N[C@H](C(N)=O)[C@@H](C)CC)[C@@H](C)CC)C(C)C)[C@@H](C)O` [Compound 63, TVFRSSEkRR(Aib)ADIFI] (Palmitoyl-TVFRSSE[dK]RR[Aib]ADIFI-NH2), the percent intrinsic activity at 0.3 µM at APJ receptor turned out to be 61%. For the same compound, the “Histimine (% vs. 48/40)” value in the series “Histimine (% vs. 48/40)” turned out to be 86%.
Turning to `CCCCCCCCCCCCCCCC(=O)N[C@H](C(=O)N[C@H](C(=O)N[C@@H](Cc1ccccc1)C(=O)N[C@@H](CCCNC(=N)N)C(=O)N[C@@H](CO)C(=O)N[C@@H](CO)C(=O)N[C@@H](CCC(=O)O)C(=O)N[C@H](CCCCN)C(=O)N[C@@H](CCCNC(=N)N)C(=O)N[C@@H](CCCNC(=N)N)C(=O)N[C@@H](CO)C(=O)N[C@@H](C)C(=O)N[C@@H](CC(=O)O)C(=O)N[C@H](C(=O)N[C@@H](CCC(N)=O)C(=O)N[C@H](C(N)=O)[C@@H](C)CC)[C@@H](C)CC)C(C)C)[C@@H](C)O` [Compound 31] (Palmitoyl-TVFRSSE[dK]RRSADIQI-NH2), the percent intrinsic activity at 0.3 µM at APJ receptor stood at 67%. The “Histimine (% vs. 48/40)” value in “Histimine (% vs. 48/40)” was 68%.
Regarding `CCCCCCCCCCCCCCCC(=O)N[C@H](C(=O)N[C@H](C(=O)N[C@@H](Cc1ccccc1)C(=O)N[C@@H](CCCNC(=N)N)C(=O)N[C@@H](CO)C(=O)N[C@@H](CO)C(=O)N[C@@H](CCC(=O)O)C(=O)N[C@H](CCCCN)C(=O)N[C@@H](CCCNC(=N)N)C(=O)N[C@@H](CCCNC(=N)N)C(=O)N[C@@H](CO)C(=O)N[C@@H](C)C(=O)N[C@@H](CC(=O)O)C(=O)N[C@H](C(=O)N[C@@H](Cc1ccccc1)C(=O)NC(C)(C)C(N)=O)[C@@H](C)CC)C(C)C)[C@@H](C)O` [Compound 67, TVFRSSEkRRSADIF(Aib)] (Palmitoyl-TVFRSSE[dK]RRSADIF[Aib]-NH2), the percent intrinsic activity at 0.3 µM on APJ receptor stood at 46%. The “Histimine (% vs. 48/40)” value in “Histimine (% vs. 48/40)” is listed as 50%.
In the case of `CCCCCCCCCCCCCCCC(=O)N[C@H](C(=O)N[C@H](C(=O)N[C@@H](Cc1ccccc1)C(=O)N[C@@H](CCCNC(=N)N)C(=O)N[C@@H](CO)C(=O)N[C@@H](CO)C(=O)N[C@@H](CCC(=O)O)C(=O)N[C@H](CCCCN)C(=O)N[C@@H](CCCNC(=N)N)C(=O)N[C@@H](CCCNC(=N)N)C(=O)N[C@@H](CO)C(=O)N[C@@H](C)C(=O)N[C@@H](Cc1c[nH]cn1)C(=O)N[C@H](C(=O)N[C@@H](Cc1ccccc1)C(=O)N[C@H](C(N)=O)[C@@H](C)CC)[C@@H](C)CC)C(C)C)[C@@H](C)O` [Compound 16] (Palmitoyl-TVFRSSE[dK]RRSAHIFI-NH2), the percent intrinsic activity at 0.3 µM at APJ receptor was 63%. For the same compound, in the series “Histimine (% vs. 48/40)”, the “Histimine (% vs. 48/40)” value worked out at 107%.
For the compound `CCCCCCCCCCCCCCCC(=O)N[C@H](C(=O)N[C@H](C(=O)N[C@@H](Cc1ccccc1)C(=O)N[C@@H](CCCNC(=N)N)C(=O)NCC(=O)N[C@@H](CO)C(=O)N[C@@H](CCC(=O)O)C(=O)N[C@H](CCCCN)C(=O)N[C@@H](CCCNC(=N)N)C(=O)N[C@@H](CCCNC(=N)N)C(=O)N[C@@H](CO)C(=O)N[C@@H](C)C(=O)N[C@@H](CC(=O)O)C(=O)N[C@H](C(=O)N[C@@H](Cc1ccccc1)C(=O)N[C@H](C(N)=O)[C@@H](C)CC)[C@@H](C)CC)C(C)C)[C@@H](C)O` [Compound 72] (Palmitoyl-TVFRGSE[dK]RRSADIFI-NH2; C-terminus assumed), at APJ receptor, the EC50 stood at 134 nM; the Ranking result is “** (EC50 101-500 nM and % histamine>35%)”; the percent intrinsic activity at 0.3 µM turned out to be 75%. Besides, the “Histimine (% vs. 48/40)” value in the series “Histimine (% vs. 48/40)” is 44%.

The values are drawn from patent publication US20150011466A1, “APJ Receptor Compounds” (priority 2012, published 2015).
